Common to all, as to test: ≥ marks a high value that may be exact or a test limit, other limits are often not marked, values filed in µg/mL are converted to µM
The subject of assay [1] is Escherichia coli TOP 10.
The subject of assay [2] is Escherichia coli NCTC 10418.
In assay [3] the test system is Enterococcus faecalis NCTC 12697.
The subject of assay [4] is Staphylococcus aureus NCTC 10788.
In assay [5] the test system is Candida albicans NCPF 1467.
Assay [6] deals with Pseudomonas aeruginosa ATCC 27853.
Assay [7] relates to Staphylococcus aureus ATCC 12493.
The subject of assay [8] is Candida krusei ATCC 40147.
Assay [9] has as its system Candida krusei ATCC 40095.
Assay [10] has as its system Candida parapsilosis ATCC 90018.
Assay [11] deals with Candida albicans CA1.
The test system of assay [12] is Klebsiella pneumoniae ATCC 13866.
Assay [13] concerns Staphylococcus aureus SH1000.
The subject of assay [14] is Candida parapsilosis CGMCC 2.3989.
Assay [15] deals with Candida albicans.
Assay [16] has as its system Candida albicans CGMCC 2.2086.
The subject of assay [17] is Candida tropicalis CGMCC 2.1975.
For assay [18], the system named is Candida viswanathii NBRC 10321.
Assay [19] has as its system Aspergillus oryzae NBRC 100959.
For assay [20], the system named is Staphylococcus epidermidis NBRC 12993.
Assay [21] concerns Pseudomonas putida NBRC 100650.
In assay [22] the test system is Micrococcus luteus NBRC 3333.
The test system of assay [23] is Escherichia coli NBRC 3972.
Assay [24] relates to Staphylococcus aureus ATCC 29213.
Assay [25] has as its system Staphylococcus epidermidis ATCC 12228.
In assay [26] the test system is Lacticaseibacillus rhamnosus 1.0385.
For assay [27], the system named is Staphylococcus aureus ATCC 43300.
Assay [28] concerns Lacticaseibacillus rhamnosus 1.0386.
Assay [29] has as its system Lacticaseibacillus rhamnosus 1.0911.
In assay [30] the test system is Escherichia coli ATCC 25922.
Assay [31] has as its system Escherichia coli UB1005.
The test system of assay [32] is Lacticaseibacillus rhamnosus 1.0925.
Assay [33] deals with Lacticaseibacillus rhamnosus 7469.
For assay [34], the system named is Lactiplantibacillus plantarum 8014.

Structures are written as SMILES. ≈ marks a conversion by molar mass, not a printed value. Where “and” joins values, the source holds several entries; their conditions need not be identical. Equal entries are not always repeated.

By MIC is commonly meant the lowest concentration found to suppress growth. In [1], `CC[C@H](C)[C@H](NC(=O)[C@H](C)NC(=O)[C@H](CS)NC(=O)[C@H](CC(C)C)NC(=O)[C@@H](NC(=O)[C@H](C)NC(=O)[C@H](CCCN=C(N)N)NC(=O)[C@@H](NC(=O)[C@@H](NC(=O)[C@H](CCCCN)NC(=O)[C@@H](NC(=O)[C@@H](NC(=O)[C@@H]1CCCN1C(=O)CNC(=O)[C@H](CC(C)C)NC(=O)[C@@H](N)Cc1ccccc1)[C@@H](C)CC)[C@@H](C)CC)[C@@H](C)O)C(C)C)C(C)C)C(=O)N[C@@H](CCCCN)C(=O)N[C@@H](CCCCN)C(=O)N[C@@H](CC(C)C)C(N)=O` [FLGPIIKTVRAVLCAIKKL] came in with an MIC of 12 µM (≈ 25 µg/mL).

In the case of `CC[C@H](C)[C@H](NC(=O)[C@@H](NC(=O)CNC(=O)[C@@H]1CCCN1C(=O)[C@@H](NC(=O)[C@@H](NC(=O)[C@H](CC(N)=O)NC(=O)[C@H](C)NC(=O)[C@H](C)NC(=O)[C@@H](NC(=O)[C@H](CCCCN)NC(=O)[C@H](CC(C)C)NC(=O)[C@@H](NC(=O)CNC(=O)[C@@H]1CCCN1C(=O)[C@H](CC(C)C)NC(=O)[C@@H](N)Cc1ccccc1)[C@@H](C)CC)C(C)C)C(C)C)C(C)C)C(C)C)C(=O)O` [FLPGILKVAANVVPGVI], the MIC in assay [2] is at least 512 µM; in assay [3], at least 512 µM; in [4], at least 512 µM; in [5], at least 512 µM; in [6], above 512 µM; in assay [7] it was at least 512 µM.

As for `CC[C@H](C)[C@H](NC(=O)[C@H](C)NC(=O)[C@H](CCCCN)NC(=O)[C@H](CC(C)C)NC(=O)[C@H](C)NC(=O)[C@H](Cc1c[nH]c2ccccc12)NC(=O)[C@H](CCCCN)NC(=O)[C@H](C)NC(=O)[C@H](CC(C)C)NC(=O)[C@@H](NC(=O)CNC(=O)[C@H](Cc1c[nH]c2ccccc12)NC(=O)[C@@H](N)Cc1ccccc1)[C@@H](C)O)C(=O)O` [FWGTLAKWALKAI], the MIC in assay [8] is 10 µM (≈ 15 µg/mL); in [9] it was 10 µM and 20 µM; in [10], 20 µM (≈ 30.1 µg/mL); in assay [11], 10 µM (≈ 15 µg/mL).

In the case of `CC[C@H](C)[C@H](NC(=O)CN)C(=O)N[C@@H](Cc1cnc[nH]1)C(=O)NCC(=O)N[C@H](C(=O)N[C@H](C(=O)N[C@@H](CCCN=C(N)N)C(=O)N[C@@H](CO)C(=O)N[C@@H](Cc1ccccc1)C(=O)N[C@@H](CCSC)C(=O)N[C@@H](CCCN=C(N)N)C(=O)N[C@@H](CCSC)C(=O)N[C@@H](CC(C)C)C(=O)NCC(=O)N[C@@H](Cc1cnc[nH]1)C(=O)N[C@@H](CC(C)C)C(=O)NCC(=O)O)C(C)C)C(C)C` [GIHGVVRSFMRMLGHLG], the MIC was at least 34.3 µM in [12] and 4.28 µM (≈ 8 µg/mL) in [6].

Consider `CC[C@H](C)[C@H](NC(=O)[C@H](CC(=O)O)NC(=O)[C@H](CC(C)C)NC(=O)[C@H](CC(C)C)NC(=O)[C@@H](N)CCCCN)C(=O)N[C@H](C(=O)N[C@@H](CCCCN)C(=O)N[C@@H](CCCCN)C(=O)N[C@H](C(=O)N[C@H](C(=O)NCC(=O)N[C@@H](C)C(=O)N[C@@H](CC(C)C)C(=O)NCC(N)=O)C(C)C)C(C)C)C(C)C` [KLLDIVKKVVGALG], for which the MIC in assay [13] was at least 100 µM.

Take `CC[C@H](C)[C@H](NC(=O)CNC(=O)[C@H](CCCN=C(N)N)NC(=O)[C@H](Cc1c[nH]c2ccccc12)NC(=O)[C@H](CC(C)C)NC(=O)[C@H](CC(C)C)NC(=O)[C@H](Cc1c[nH]c2ccccc12)NC(=O)[C@H](CCCN=C(N)N)NC(=O)CNC(=O)[C@@H](NC(=O)[C@@H](N)CCCN=C(N)N)[C@@H](C)CC)C(=O)N[C@@H](CCCN=C(N)N)C(=O)N[C@@H](CCCN=C(N)N)C(=O)N[C@H](C(=O)NCC(=O)N[C@@H](CCCN=C(N)N)C(=O)N[C@@H](Cc1c[nH]c2ccccc12)C(=O)N[C@@H](CC(C)C)C(N)=O)[C@@H](C)CC` [RIGRWLLWRGIRRIGRWL]: the MIC in [14] was 4 µM (≈ 9.45 µg/mL); in assay [15] it was 2.83 µM and 4 µM; in assay [16] it was 4 µM (≈ 9.45 µg/mL); in assay [17] it was 2 µM (≈ 4.73 µg/mL).

On to `CC[C@H](C)[C@H](NC(=O)[C@H](CCCCN)NC(=O)[C@@H](N)CCCN=C(N)N)C(=O)N[C@@H](CCCCN)C(=O)N[C@H](C(=O)N[C@@H](Cc1ccc(O)cc1)C(=O)N[C@@H](CC(C)C)C(=O)N1CCC[C@H]1C(=O)N[C@@H](CCCN=C(N)N)C(=O)N[C@@H](CCSC)C(=O)N[C@@H](CCCCN)C(=O)O)C(C)C` [RKIKVYLPRMK], for which the MIC in assay [18] is 17.5 µM (≈ 25 µg/mL); in assay [19] it was 17.5 µM (≈ 25 µg/mL); in [20], at least 69.8 µM; in assay [21], 17.5 µM (≈ 25 µg/mL); in assay [22], 17.5 µM (≈ 25 µg/mL); in assay [23], 8.73 µM (≈ 12.5 µg/mL).

For the molecule `NC(=O)CC[C@H](NC(=O)[C@H](Cc1c[nH]c2ccccc12)NC(=O)[C@H](Cc1c[nH]c2ccccc12)NC(=O)[C@H](Cc1c[nH]c2ccccc12)NC(=O)[C@H](CCC(N)=O)NC(=O)[C@H](Cc1c[nH]c2ccccc12)NC(=O)[C@H](CCCN=C(N)N)NC(=O)[C@@H](N)CCCN=C(N)N)C(=O)N[C@@H](Cc1c[nH]c2ccccc12)C(=O)N[C@@H](CCCN=C(N)N)C(=O)N[C@@H](CCCN=C(N)N)C(N)=O` [RRWQWWWQWRR], the MIC in assay [24] was 4 µM (≈ 7.32 µg/mL); in assay [25] it was 4 µM (≈ 7.32 µg/mL); in assay [26], at least 64 µM; in assay [27] it was 4 µM (≈ 7.32 µg/mL); in [28], 16 µM (≈ 29.3 µg/mL); in assay [29], at least 64 µM. In addition, the MIC in [30] was 4 µM (≈ 7.32 µg/mL); in assay [31] it was 4 µM (≈ 7.32 µg/mL); in assay [32], at least 64 µM; in assay [6], 4 µM (≈ 7.32 µg/mL); in [33], at least 64 µM; in assay [34] it was 8 µM (≈ 14.6 µg/mL).

The values above are taken from DBAASP.
